This assay concerns the target T1, human serum albumin (Homo sapiens, UniProt P02768).
T1 construct: gene ALB
The assay is described as follows: intrinsic Trp fluorescence quenching (excitation […] nm, […] K), double-log plot; Kb is an association constant. It is filed as binding. Conditions: read-out: Kb/dm^3 mol^-1 (converted).

T1 sequence (P02768 25-609): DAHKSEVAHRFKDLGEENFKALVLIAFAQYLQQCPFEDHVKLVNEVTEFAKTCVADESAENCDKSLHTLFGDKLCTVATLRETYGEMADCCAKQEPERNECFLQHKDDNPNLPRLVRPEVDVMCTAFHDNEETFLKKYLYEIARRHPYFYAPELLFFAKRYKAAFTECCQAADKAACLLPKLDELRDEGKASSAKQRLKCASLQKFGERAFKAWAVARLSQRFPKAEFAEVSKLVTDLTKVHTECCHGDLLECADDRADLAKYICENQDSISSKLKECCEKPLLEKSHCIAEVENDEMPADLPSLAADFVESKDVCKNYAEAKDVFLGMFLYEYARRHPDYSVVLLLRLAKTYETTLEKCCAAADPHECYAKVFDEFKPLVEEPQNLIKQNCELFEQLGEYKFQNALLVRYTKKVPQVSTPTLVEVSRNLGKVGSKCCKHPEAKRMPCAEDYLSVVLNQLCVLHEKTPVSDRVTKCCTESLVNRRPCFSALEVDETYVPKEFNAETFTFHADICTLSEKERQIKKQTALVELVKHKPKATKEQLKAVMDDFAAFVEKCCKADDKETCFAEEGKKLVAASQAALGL

As for `O=C(CCCN1CCC(O)(c2ccc(Cl)cc2)CC1)c1ccc(F)cc1` [HPD, haloperidol], the Kd is 225 µM.

For the origin of these results see PMC12295124, “Quercetin, Catechin, and Diosmin as Modulators of Haloperidol–HSA Interactions: A Biophysical and Computational Study” (International Journal of Molecular Sciences, 2025).
